Holding throughout (format): functional
Test [1] has as its target Beta-2 adrenergic receptor (Rattus norvegicus, UniProt P10608). In words: Agonistic activity towards beta-2 adrenoceptor. Mean concentration required to produce 50% inhibition of uterine contraction.
A short description of test [2]: Concentration ratio of beta-2 (EC50) to beta3 (EC50).
The nature of test [3]: Concentration ratio of beta-1 (EC50) to beta3 (EC50).
Test [4] concerns the target Beta-1 adrenergic receptor (Rattus norvegicus) (UniProt P18090). In words: Increase in BPM in isolated rat atria.
A short description of test [5]: Concentration ratio of beta2 (EC50) to […].
The nature of test [6]: Concentration ratio of beta-1 (EC50) to beta-3 (EC50).
The species entered for test [7] is Rattus norvegicus. In words: In vitro concentration required to produce 50% relaxation of rat detrusor.
Test [8] relates to Rattus norvegicus. In words: In vivo dose required to lower the intrabladder pressure of the anesthetized rat by 50% over that before compound administration.
For a further test, the species on record is Mustela putorius furo. In words: In vitro concentration required to produce 50% relaxation of ferret detrusor.

Chain of Beta-2 adrenergic receptor (P10608 whole entry): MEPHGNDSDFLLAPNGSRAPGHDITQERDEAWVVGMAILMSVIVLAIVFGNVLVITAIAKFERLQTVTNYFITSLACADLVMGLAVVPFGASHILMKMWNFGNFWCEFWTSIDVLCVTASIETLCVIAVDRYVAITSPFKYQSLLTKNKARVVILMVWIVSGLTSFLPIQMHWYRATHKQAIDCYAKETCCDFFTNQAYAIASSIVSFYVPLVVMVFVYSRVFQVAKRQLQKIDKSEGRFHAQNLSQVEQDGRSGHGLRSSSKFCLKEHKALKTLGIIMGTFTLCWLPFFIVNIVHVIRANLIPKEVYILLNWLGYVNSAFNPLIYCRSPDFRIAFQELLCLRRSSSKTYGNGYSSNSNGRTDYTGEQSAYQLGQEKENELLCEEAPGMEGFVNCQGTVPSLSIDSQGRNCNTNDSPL
Chain of Beta-1 adrenergic receptor (Rattus norvegicus) (P18090 whole entry, looked up): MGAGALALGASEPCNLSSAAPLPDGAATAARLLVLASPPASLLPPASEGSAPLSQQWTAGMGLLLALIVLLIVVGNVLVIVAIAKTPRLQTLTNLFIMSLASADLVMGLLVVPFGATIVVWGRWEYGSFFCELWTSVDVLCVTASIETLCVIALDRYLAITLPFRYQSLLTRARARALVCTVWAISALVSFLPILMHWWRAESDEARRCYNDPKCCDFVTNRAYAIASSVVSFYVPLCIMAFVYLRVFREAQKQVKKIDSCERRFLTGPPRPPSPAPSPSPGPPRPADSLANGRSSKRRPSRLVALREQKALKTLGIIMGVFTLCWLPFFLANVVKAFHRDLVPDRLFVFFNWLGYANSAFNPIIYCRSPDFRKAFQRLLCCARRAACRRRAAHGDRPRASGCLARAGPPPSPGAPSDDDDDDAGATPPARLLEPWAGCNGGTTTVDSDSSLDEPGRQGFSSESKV

With `C[C@H](NCCc1ccc(N(C)CC(=O)O)cc1)[C@H](O)c1ccc(O)cc1`, the half-inhibitory concentration (IC50) (as a rule, the concentration that gives 50% inhibition) in test [1] was 1580 nM. Also, the results for the Selectivity in [2] and in test [3] were 31 and 65, respectively. The -Log EC20 in test [4] came to 5.47.

Regarding `C[C@H](NCCc1cc(Cl)c(N(C)CC(=O)O)c(Cl)c1)[C@H](O)c1ccc(O)cc1`, the “-Log IC50” value in [1] was > 4. The Selectivity in test [2] and in test [3] was > 625 in each case. Further, the -Log EC20 in [4] is > 4.

Regarding `C[C@H](NCCc1ccc(NCC(=O)O)cc1)[C@H](O)c1ccc(O)cc1`, the half-maximal inhibitory concentration (IC50) in test [1] is 646 nM. Also, the Selectivity was 27 in test [2] and 54 in [3]. This molecule gave a -Log EC20 in test [4] of 5.89.

`C[C@H](NCCc1ccc(NC(C)(C)C(=O)O)cc1)[C@H](O)c1ccc(O)cc1` had a 50% inhibitory concentration (IC50) in test [1] of 11000 nM. Moreover, the -Log EC20 in test [4] is 4.96.

`C[C@H](NCCc1cc(Br)c(NCC(=O)O)c(Br)c1)[C@H](O)c1ccc(O)cc1` showed a 50% inhibitory concentration (IC50) in [1] of 2570 nM. Further, the Selectivity in [2] was found to be 32; in [3], 235. In addition, the -Log EC20 in test [4] was found to be 4.72.

Regarding `C[C@H](NCCc1ccc(NCC(=O)O)cc1Cl)[C@H](O)c1ccc(O)cc1`, the concentration for half-maximal inhibition (IC50) in test [1] was 61.7 nM. The figures for the Selectivity in test [2] and in [3] were 8.6 and 15, respectively. Moreover, the -Log EC20 in [4] turned out to be 6.96.

In test [1], `C[C@H](NCCc1ccc(NCC(=O)O)c(I)c1)[C@H](O)c1ccc(O)cc1` gave an IC50 of 2190 nM. For the same molecule, the results for the Selectivity in test [2] and in test [3] were 2.7 and 6.6, respectively. The same molecule showed a -Log EC20 in test [4] of 5.27.

In the case of `C[C@H](NCCc1ccc(NCC(=O)O)c(Cl)c1)[C@H](O)c1ccc(O)cc1`, the IC50 in [1] is 3310 nM. Also, the Selectivity in [3] is 2900; in [5] it was 3550. The molecule further gave a -Log EC20 in test [4] of 5.57.

For the molecule `C[C@H](NCCc1ccc(NC(C)(C)C(=O)O)cc1Cl)[C@H](O)c1ccc(O)cc1`, the IC50 in test [1] is 1410 nM. Also, the Selectivity in test [6] worked out at 46; in test [2], 250. In test [4], this molecule returned a -Log EC20 of 6.59.

Molecule `C[C@H](NCCc1cc(Cl)c(NCC(=O)O)cc1Cl)[C@H](O)c1ccc(O)cc1` had a half-maximal inhibitory concentration (IC50) in test [1] of 1290 nM. The Selectivity in test [2] and in [3] was 21 in each case. The -Log EC20 in [4] was 5.89.

Turning to `C[C@H](NCCc1cc(Cl)c(NCC(=O)O)c(Cl)c1)[C@H](O)c1ccc(O)cc1`, the EC50 – broadly, the midpoint of the concentration-response curve – in the test listed under Rattus norvegicus [7] is 191 nM; in the test listed under Mustela putorius furo, 14.1 nM. For the same molecule, the ED50 – broadly, the midpoint of the dose-response relation – with Rattus norvegicus [8] turned out to be 0.048 mg/kg. The same molecule gave an IC50 in test [1] of 14100 nM. In addition, the values for the Selectivity in [2] and in [3] were 1000 and 2070, respectively. For the same molecule, in [4], the -Log EC20 worked out at 4.54.

`C[C@H](Cc1ccc2c(c1)OC(C(=O)O)(C(=O)O)O2)NC[C@H](O)c1cccc(Cl)c1` came in with a -Log EC20 in [4] of 4.77.

In test [1], `C[C@H](NCCc1ccc(N(CC(=O)O)Cc2ccccc2)cc1)[C@H](O)c1ccc(O)cc1` gave an IC50 of 251 nM. Further, the -Log EC20 in test [4] came out at 6.82.

In the case of `C[C@H](NCCc1ccc(N(C)CC(=O)O)c(Cl)c1)[C@H](O)c1ccc(O)cc1`, the “-Log IC50” value in test [1] was > 4. In addition, the Selectivity is > 9090 in test [2] and 2270 in test [3]. This molecule also showed a -Log EC20 in test [4] of 4.6.

Molecule `C[C@H](NCCc1ccc(N(CC(=O)O)CC(=O)O)cc1)[C@H](O)c1ccc(O)cc1` gave an IC50 in [1] of 282 nM. The molecule also gave a -Log EC20 in [4] of 4.57.

`C[C@H](NCCc1ccc(NCC(=O)O)c(Cl)c1Cl)[C@H](O)c1ccc(O)cc1`: the concentration for half-maximal inhibition (IC50) in test [1] was 1700 nM. For the same molecule, the Selectivity in [2] was determined as 3.7; in [3], 0.33. The molecule also returned a -Log EC20 in test [4] of 6.82.

The molecule `CC(C)NCC(O)c1ccc(O)c(O)c1` (configuration not stated) [ISOPROTERENOL] showed an EC50 in the test listed under Rattus norvegicus [7] of 10 nM. The ED50 with Rattus norvegicus [8] amounted to 0.0006 mg/kg.

Molecule `C[C@H](Cc1ccc(OCC(=O)O)cc1)NC[C@H](O)c1cccc(Cl)c1` showed an IC50 in [1] of 9.12 nM.

As to `CC(NCCc1ccc(O)cc1)C(O)c1ccc(O)cc1` (configuration not stated) [RITODRINE], in test [1], the concentration for half-maximal inhibition (IC50) was 24 nM. Further, in test [4], the -Log EC20 came out at 6.8.

`C[C@H](NCCc1ccc(NCC(=O)O)c(Br)c1)[C@H](O)c1ccc(O)cc1` gave a 50% inhibitory concentration (IC50) in test [1] of 1410 nM. In addition, the Selectivity in test [2] is 2.5; in [3], 14. Besides, the -Log EC20 in test [4] came to 5.1.

These data come from ChEMBL document CHEMBL1134410, “Discovery of novel N-phenylglycine derivatives as potent and selective beta(3)-adrenoceptor agonists for the treatment of frequent urination and urinary incontinence” (J Med Chem, 2001).
